Measurements published in patent US20230266302A1, “SYNTHESIS AND USE OF N-BENZYL SULFONAMIDES” (THE UNIVERSITY OF TULSA, priority 2020, published 2023).

How the values were obtained:
Experiment in all cases: ATP level assay (CellTiter-Glo), percent of control
Type in all cases: cell-based
[1] = system: MCF10A (non-cancerous breast); conditions: two hour incubation; for activity at 100 µM: Homo sapiens, MCF-10A, 2 h, compound alone, control DMSO, read-out: POC (percent of control) MCF10A
MDA-MB (breast cancer) = conditions: two hour incubation; for activity at 100 µM: 2 h, compound alone, control DMSO, read-out: POC (percent of control) MDA-MB
SkBr3 (breast cancer) = conditions: two hour incubation; for activity at 100 µM: Homo sapiens, SK-BR-3, 2 h, compound alone, control DMSO, read-out: POC (percent of control) SkBr3
MCF7 (breast cancer) = conditions: two hour incubation; for activity at 100 µM: Homo sapiens, MCF7, 2 h, compound alone, control DMSO, read-out: POC (percent of control) MCF7
HeLa (cervical cancer) = conditions: two hour incubation; for activity at 100 µM: Homo sapiens, HeLa, 2 h, compound alone, control DMSO, read-out: POC (percent of control) HeLa
T47D (breast cancer) = conditions: two hour incubation; for activity at 100 µM: Homo sapiens, T47D, 2 h, compound alone, control DMSO, read-out: POC (percent of control) T47D
NCI-H196 (lung cancer) = conditions: two hour incubation; for activity at 100 µM: NCI-H196, 2 h, compound alone, control DMSO, read-out: POC (percent of control) NCI-H196
PC3 (prostate cancer) = conditions: two hour incubation; for activity at 100 µM: 2 h, compound alone, control DMSO, read-out: POC (percent of control) PC3
[2] = system: BxPC3 (pancreatic cancer); conditions: two hour incubation; for activity at 100 µM: Homo sapiens, BXPC-3, 2 h, compound alone, control DMSO, read-out: POC (percent of control) BxPC3
H293 (kidney cancer) = conditions: two hour incubation; for activity at 100 µM: 2 h, compound alone, control DMSO, read-out: POC (percent of control) H293
HDF (normal cells) = conditions: two hour incubation; for activity at 100 µM: 2 h, compound alone, control DMSO, read-out: POC (percent of control) HDF
[3] = compound 100 uM + 2DG (about 10-20 mM)
[4] = compound 100 uM + rotenone (approximately 1.25 μM)

Compound	activity at 100 µM [1]	POC (percent of control) MCF10A [1, 3]	POC (percent of control) MCF10A [1, 4]	activity at 100 µM (MDA-MB (breast cancer))	POC (percent of control) MDA-MB (MDA-MB (breast cancer); [3])	POC (percent of control) MDA-MB (MDA-MB (breast cancer); [4])	activity at 100 µM (SkBr3 (breast cancer))	POC (percent of control) SkBr3 (SkBr3 (breast cancer); [3])	POC (percent of control) SkBr3 (SkBr3 (breast cancer); [4])	activity at 100 µM (MCF7 (breast cancer))	POC (percent of control) MCF7 (MCF7 (breast cancer); [3])	POC (percent of control) MCF7 (MCF7 (breast cancer); [4])	activity at 100 µM (HeLa (cervical cancer))	POC (percent of control) HeLa (HeLa (cervical cancer); [3])	POC (percent of control) HeLa (HeLa (cervical cancer); [4])	activity at 100 µM (T47D (breast cancer))	POC (percent of control) T47D (T47D (breast cancer); [3])	POC (percent of control) T47D (T47D (breast cancer); [4])	activity at 100 µM (NCI-H196 (lung cancer))	POC (percent of control) NCI-H196 (NCI-H196 (lung cancer); [3])	also measured
Cc1cccc2c(CNS(=O)(=O)c3ccccc3)c[nH]c12 [Compound 6, N-[(7-methyl-1H-indol-3-yl)methyl]benzenesulfonamide]	52.3%	41.3% of control	87.8% of control	57.2%	58.5% of control	67.3% of control	97%	55.9% of control	79.4% of control	72%	41% of control	63.4% of control	75.3%	47.3% of control	66.9% of control	23.7%	19.7% of control	39.1% of control	64.3%	34.3% of control	POC (percent of control) NCI-H196 (NCI-H196 (lung cancer); [4]): 23.7% of control; activity at 100 µM (PC3 (prostate cancer)): 38.3%; POC (percent of control) PC3 (PC3 (prostate cancer); [3]): 35.9% of control; POC (percent of control) PC3 (PC3 (prostate cancer); [4]): 54.3% of control; activity at 100 µM [2]: 68.9%; POC (percent of control) BxPC3 [2, 3]: 33.4% of control; POC (percent of control) BxPC3 [2, 4]: 69.7% of control; activity at 100 µM (H293 (kidney cancer)): 62.6%; POC (percent of control) H293 (H293 (kidney cancer); [3]): 31.6% of control; POC (percent of control) H293 (H293 (kidney cancer); [4]): 49.6% of control; activity at 100 µM (HDF (normal cells)): 48.8%; POC (percent of control) HDF (HDF (normal cells); [3]): 37.7% of control; POC (percent of control) HDF (HDF (normal cells); [4]): 61.3% of control
O=S(=O)(NCc1c[nH]c2ccccc12)c1ccc(Cl)cc1 [Compound 2, N-[(1H-indol-3-yl)methyl]-4-chlorobenzenesulfonamide]	42.9%	23.7% of control	58.7% of control	48.1%	37.8% of control	55.7% of control	72.6%	38% of control	72.6% of control	70.1%	25.1% of control	56.9% of control	64.6%	30.8% of control	57.5% of control	22.2%	16.6% of control	30.8% of control	50.9%	22.9% of control	POC (percent of control) NCI-H196 (NCI-H196 (lung cancer); [4]): 23.5% of control; activity at 100 µM (PC3 (prostate cancer)): 30.9%; POC (percent of control) PC3 (PC3 (prostate cancer); [3]): 16.7% of control; POC (percent of control) PC3 (PC3 (prostate cancer); [4]): 36.6% of control; activity at 100 µM [2]: 69%; POC (percent of control) BxPC3 [2, 4]: 86.4% of control; activity at 100 µM (H293 (kidney cancer)): 43.8%; POC (percent of control) H293 (H293 (kidney cancer); [3]): 20% of control; POC (percent of control) H293 (H293 (kidney cancer); [4]): 47.6% of control; activity at 100 µM (HDF (normal cells)): 49.3%; POC (percent of control) HDF (HDF (normal cells); [3]): 37.5% of control; POC (percent of control) HDF (HDF (normal cells); [4]): 57.6% of control
Cc1ccc(S(=O)(=O)NCc2c[nH]c3cccc(Br)c23)cc1 [Compound 5, N-[(4-bromo-1H-indol-3-yl)methyl]-4-methylbenzenesulfonamide]	55.3%	15.8% of control	45% of control	54.4%	24.7% of control	24.6% of control	71.1%	37.1% of control	60% of control	86.4%	18.7% of control	55.6% of control	76.1%	22.3% of control	31.9% of control	36.6%	13.8% of control	36% of control	47.7%	4.2% of control	POC (percent of control) NCI-H196 (NCI-H196 (lung cancer); [4]): 9.1% of control; activity at 100 µM (PC3 (prostate cancer)): 68.3%; POC (percent of control) PC3 (PC3 (prostate cancer); [3]): 4.8% of control; POC (percent of control) PC3 (PC3 (prostate cancer); [4]): 18.3% of control; activity at 100 µM [2]: 54.3%; POC (percent of control) BxPC3 [2, 3]: 10.5% of control; POC (percent of control) BxPC3 [2, 4]: 36.5% of control; activity at 100 µM (H293 (kidney cancer)): 49.7%; POC (percent of control) H293 (H293 (kidney cancer); [3]): 17.2% of control; POC (percent of control) H293 (H293 (kidney cancer); [4]): 41.2% of control; activity at 100 µM (HDF (normal cells)): 70.5%; POC (percent of control) HDF (HDF (normal cells); [3]): 16.1% of control; POC (percent of control) HDF (HDF (normal cells); [4]): 83.5% of control
